The assay concerns the target T1, MAGL protein (Homo sapiens, UniProt Q99685).
T1 sequence (Q99685 1-303): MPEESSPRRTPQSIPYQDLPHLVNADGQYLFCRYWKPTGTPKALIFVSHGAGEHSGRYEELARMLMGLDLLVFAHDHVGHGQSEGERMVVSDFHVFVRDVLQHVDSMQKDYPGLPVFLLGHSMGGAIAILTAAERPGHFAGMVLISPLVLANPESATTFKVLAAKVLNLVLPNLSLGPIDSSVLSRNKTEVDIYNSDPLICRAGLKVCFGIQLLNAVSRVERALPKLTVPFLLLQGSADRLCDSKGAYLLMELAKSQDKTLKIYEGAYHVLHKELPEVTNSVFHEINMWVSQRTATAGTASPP
Kind of assay: 2-AG assay: MAGL inhibitory activity by hydrolysis of 2-arachidonoylglycerol to arachidonic acid, followed by mass spectrometry. Type of assay: biochemical. The note with it: 8 μM 2-arachidonoylglycerol, 15 min preincubation, 30 min reaction at RT, RapidFire MS readout. How it is done:
Compounds of formula (I) were profiled for MAGL inhibitory activity by determining the enzymatic activity by following the hydrolysis of the natural substrate 2-arachidonoylglycerol (2-AG) resulting in arachidonic acid, which can be followed by mass spectrometry. This assay is hereinafter abbreviated “2-AG assay”. The 2-AG assay was carried out in 384 well polypropylene assay plates. Compound dilutions were made in 100% DMSO in a polypropylene plate in 3-fold dilution steps to give a final concentration range in the assay from 12.5 μM to […]. Compound dilutions were added to MAGL protein in assay buffer (50 mM TRIS, 1 mM EDTA, 0.01% (v/v) Tween-20, 2.5% (v/v) DMSO). After shaking, the plate was incubated for 15 min at RT. To start the reaction, 2-arachidonoylglycerol in assay buffer was added. The final concentrations in the assay was […] for MAGL protein and 8 μM 2-arachidonoylglyerol. After shaking and 30 min incubation at RT, the reaction was quenched by the addition of two assay volumes of acetonitrile containing 4 μM of d8-arachidonic acid. The amount of arachidonic acid formed was traced by an online SPE system (Agilent Rapidfire) coupled to a triple quadrupole mass spectrometer. A C18 SPE cartridge (Agilent G9205A) was used in an acetonitrile/water liquid setup. The mass spectrometer was operated in negative electrospray mode following the mass transitions 303.1→259.1 for arachidonic acid and 311.1→267.0 for d8-arachidonic acid. The activity of the compounds was calculated based on the ratio of intensities [arachidonic acid/d8-arachidonic acid].

`CC(C)(C(=O)O)c1cccc(OC2CN(C(=O)N3CC4(CC(c5nnc(C6CC6)[nH]5)C4)C3)C2)c1` [Example 387, 2-[3-[1-[6-(5-cyclopropyl-4H-1,2,4-triazol-3-yl)-2-azaspiro[3.3]heptane-2-carbonyl]azetidin-3-yl]oxyphenyl]-2-methyl-propanoic Acid] registered a concentration for half-maximal inhibition (IC50) of 79.6 nM.

Molecule `O=C(O)c1ccccc1-c1ccc(C2CN(C(=O)N3CC4(CC(c5nnc(C6CC6)[nH]5)C4)C3)C2)cc1` [Example 390, 2-[4-[1-[6-(5-cyclopropyl-4H-1,2,4-triazol-3-yl)-2-azaspiro[3.3]heptane-2-carbonyl]azetidin-3-yl]phenyl]benzoic Acid] displayed an IC50 of 1.06 nM.

Regarding `CCNC(=O)c1ccccc1-c1ccc(C2CN(C(=O)N3CC4(CC(c5nnc(C6CC6)[nH]5)C4)C3)C2)cc1` [Example 391, 2-[4-[1-[6-(5-cyclopropyl-4H-1,2,4-triazol-3-yl)-2-azaspiro[3.3]heptane-2-carbonyl]azetidin-3 yl]phenyl]-N-ethyl-benzamide], the half-inhibitory concentration (IC50) stood at 48.3 nM.

Take `O=C(N1CC(c2ccc(C3(C(=O)O)CC3)cc2)C1)N1CC2(CC(c3nnc(C4CC4)[nH]3)C2)C1` [Example 392, 1-[4 [1-[6-(5-cyclopropyl-4H-1,2,4-triazol-3-yl)-2-azaspiro[3.3]heptane-2-carbonyl]azetidin-3-yl]phenyl]cyclopropanecarboxylic Acid]: the IC50 was 6.59 nM.

`NC(=O)C1(c2ccc(C3CN(C(=O)N4CC5(CC(c6nnc(C7CC7)[nH]6)C5)C4)C3)cc2)CC1` [Example 393, 1-[4-[1-[6-(5-cyclopropyl-4H-1,2,4-triazol-3-yl)-2-azaspiro[3.3]heptane-2-carbonyl]azetidin-3-yl]phenyl]cyclopropanecarboaamide] showed an IC50 of 1.2 nM. This IC50 lies about 5.5-fold lower than the previous one.

`NC(=O)[C@@H]1CCCCN1c1ccc(C2CN(C(=O)N3CC4(CC(c5nnc(C6CC6)[nH]5)C4)C3)C2)cc1` [Example 394, (2S)-1-[4-[1-[6-(5-cyclopropyl-4H-1,2,4-triazol-3-yl)-2-azaspiro[3.3]heptane-2-carbonyl]azetidin-3 yl]phenyl]piperidine-2-carboxamide] returned an IC50 of 1.49 nM.

In turn, `NC(=O)[C@@H]1CC(F)(F)CCN1c1ccc(C2CN(C(=O)N3CC4(CC(c5nnc(C6CC6)[nH]5)C4)C3)C2)cc1` [Example 395, (2S)-1-[4-[1-[6-(5-cyclopropyl-4H-1,2,4-triazol-3-yl)-2-azaspiro[3.3]heptane-2-carbonyl]azetidin-3-yl]phenyl]-4,4-difluoro-piperidine-2-carboxamide] registered an IC50 of 1.28 nM.

As to `NC(=O)[C@H]1CC(F)(F)CCN1c1ccc(C2CN(C(=O)N3CC4(CC(c5nnc(C6CC6)[nH]5)C4)C3)C2)cc1` [Example 396, (2R)-1-[4-[1-[6-(5-cyclopropyl-4H-1,2,4-triazol-3-yl)-2-azaspiro[3.3]heptane-2-carbonyl]azetidin-3-yl]phenyl]-4,4-difluoro-piperidine-2-carboxamide], 4.77 nM corresponded to half-maximal inhibition (IC50).

For `NC(=O)[C@@H]1CCCN1c1ccc(C2CN(C(=O)N3CC4(CC(c5nnc(C6CC6)[nH]5)C4)C3)C2)cc1` [Example 397, (2S)-1-[4-[1-[6-(5-cyclopropyl-4H-1,2,4-triazol-3-yl)-2-azaspiro[3.3]heptane-2-carbonyl]azetidin-3-yl]phenyl]pyrrolidine-2-carboxamide], the IC50 was 2.42 nM.

`NC(=O)[C@H]1CCCN1c1ccc(C2CN(C(=O)N3CC4(CC(c5nnc(C6CC6)[nH]5)C4)C3)C2)cc1` [Example 398, (2R)-1 [4-[1-[6-(5-cyclopropyl-4H-1,2,4-triazol-3-yl)-2-azaspiro[3.3]heptane-2-carbonyl]azetidin-3-yl]phenyl]pyrrolidine-2-carboxamide] came in with an IC50 of 2.4 nM.

The molecule `CS(=O)(=O)c1cc(Cl)ccc1CC1CC2(CCN(C(=O)N3CC4(CC(c5nnc(C6CC6)[nH]5)C4)C3)C2)C1` (stereo not shown) [Example 414, [2-(4-chloro-2-mesyl-benzyl)-6-azaspiro[3.4]octan-6-yl]-[6-(5-cyclopropyl-4H-1,2,4-triazol-3-yl)-2-azaspiro[3.3]heptan-2-yl]methanone] gave an IC50 of 38.1 nM.

`CC(C)(O)Cn1nc(C2CCN(C(=O)N3CC4(CC(c5nnc(C6CC6)[nH]5)C4)C3)CC2)c2cc(Cl)ccc21` [Example 416, [4-[5-chloro-1-(2-hydroxy-2-methyl-propyl)indazol-3-yl]piperidino]-[6-(5-cyclopropyl-4H-1,2,4-triazol-3-yl)-2-azaspiro[3.3]heptan-2-yl]methanone] returned an IC50 of 13.3 nM.

As for `N=S(=O)(c1ccc(C(F)(F)F)cc1)C1CCC2(CC1)CN(C(=O)N1CC3(CC(c4nc(C5CC5)n[nH]4)C3)C1)C2` (stereo not shown) [Example 429], half-maximal inhibition (IC50) was put at 11.8 nM.

Consider `CCOc1cc(C)nn1-c1ccc(C2CN(C(=O)N3CC4(CC(c5nnc(C6CC6)[nH]5)C4)C3)C2)cc1` [Example 449, [6-(5-cyclopropyl-4H-1,2,4-triazol-3-yl)-2-azaspiro[3.3]heptan-2-yl]-[3-[4-(5-ethoxy-3-methyl-pyrazol-1-yl)phenyl]azetidin-1-yl]methanone], for which the IC50 is 0.45 nM.

Molecule `N=S(=O)(c1cccc(C(F)(F)F)c1)C1CCC2(CC1)CN(C(=O)N1CC3(CC(c4nc(C5CC5)n[nH]4)C3)C1)C2` (stereo not shown) [Example 456] registered an IC50 of 8.88 nM.

Molecule `O=C(N1CC2(CC(c3nc(C4CC4)n[nH]3)C2)C1)C12CC(Nc3cnc(C(F)(F)F)cn3)(C1)C2` [Example 473, [6-(3-cyclopropyl-1H-1,2,4-triazol-5-yl)-2-azaspiro[3.3]heptan-2-yl]-[3-[[5-(trifluoromethyl)pyrazin-2-yl]amino]-1-bicyclo[1.1.1]pentanyl]methanone] gave a half-maximal inhibitory concentration (IC50) of 67.8 nM.

`CS(=O)(=O)c1cnn(-c2ccc(C3CN(C(=O)N4CC5(CC(c6nnc(C7CC7)[nH]6)C5)C4)C3)cc2)c1` [Example 500, [6-(5-cyclopropyl-4H-1,2,4-triazol-3-yl)-2-azaspiro[3.3]heptan-2-yl]-[3-[4-(4-mesylpyrazol-1-yl)phenyl]azetidin-1-yl]methanone] gave an IC50 of 9.48 nM.

In turn, `CS(=O)(=O)c1ccccc1-c1ccc(C2CN(C(=O)N3CC4(CC(c5nc(C6CC6)n[nH]5)C4)C3)C2)cc1` [Example 516, [6-(3-cyclopropyl-1H-1,2,4-triazol-5-yl)-2-azaspiro[3.3]heptan-2-yl]-[3-[4-(2-mesylphenyl)phenyl]azetidin-1-yl]methanone] had an IC50 of 0.17 nM.

In turn, `CCOc1cc(C)n(-c2ccc(C3CN(C(=O)N4CC5(CC(c6nnc(C7CC7)[nH]6)C5)C4)C3)cc2)n1` [Example 559, [6-(5-cyclopropyl-4H-1,2,4-triazol-3-yl)-2-azaspiro[3.3]heptan-2-yl]-[3-[4-(3-ethoxy-5-methyl-pyrazol-1-yl)phenyl]azetidin-1-yl]methanone] displayed an IC50 of 0.46 nM.

Take `N=S(=O)(c1ccc(COC2CN(C(=O)N3CC4(CC(c5nc(C6(O)CC6)n[nH]5)C4)C3)C2)c(F)c1)C(F)(F)F` (stereo not shown) [Example 576, [3-[2-fluoro-4-(trifluoromethylsulfonimidoyl)benzyl]oxyazetidin-1-yl]-[6-[3-(1-hydroxycyclopropyl)-1H-1,2,4-triazol-5-yl]-2-azaspiro[3.3]heptan-2-yl]methanone]: half-maximal inhibition (IC50) required 85.1 nM.

`CNc1nnc(-c2ccc(C3CN(C(=O)N4CC5(CC(c6nnc(C7CC7)[nH]6)C5)C4)C3)cc2)s1` [Example 600, [6-(5-cyclopropyl-4H-1,2,4-triazol-3-yl)-2-azaspiro[3.3]heptan-2-yl]-[3-[4-[5-(methylamino)-1,3,4-thiadiazol-2-yl]phenyl]azetidin-1-yl]methanone] returned an IC50 of 4.25 nM.

In the case of `N=S(=O)(c1ccc(COC2CN(C(=O)N3CC4(CC(c5nc(C6CC6)n[nH]5)C4)C3)C2)c(F)c1)C(F)(F)F` (stereo not shown) [Example 632, [6-(3-cyclopropyl-1H-1,2,4-triazol-5-yl)-2-azaspiro[3,3]heptan-2-yl]-[3-[2-fluoro-4-(trifluoromethylsulfonimidoyl)benzyl]oxyazetidin-1-yl]methanone], inhibition was half-maximal at 12.3 nM (IC50).

`NC1(c2nnc(C3CC4(C3)CN(C(=O)N3CC5(CC(Cc6ccc(F)cc6C(F)(F)F)C5)C3)C4)[nH]2)CC1` [Example 636] came in with an IC50 of 0.03 nM.

As to `O=C(N1CC2(CC(c3nc(C4CC4)n[nH]3)C2)C1)N1CC2(CC(n3cnc(O)n3)C2)C1` [Example 648, [6-(3-cyclopropyl-1H-1,2,4-triazol-5-yl)-2-azaspiro[3.3]heptan-2-yl]-[6-(3-hydroxy-1,2,4-triazol-1-yl)-2-azaspiro[3.3]heptan-2-yl]methanone], 1500 nM corresponded to half-maximal inhibition (IC50).

Regarding `N#Cc1cc(C(F)(F)F)ncc1O[C@H]1CCC2(C1)CN(C(=O)N1CC3(CC(c4nc(C5(O)CC5)n[nH]4)C3)C1)C2` [Example 696], the IC50 is 42.2 nM.

What is called IC50 is the midpoint of a concentration-inhibition curve.

For the origin of these results see patent US20250099448A1, “HETEROCYCLIC COMPOUNDS” (Hoffmann-La Roche Inc., priority 2022, published 2025).
